# Assay results published in publication PMC8728736, “A Reactivity-Based ^18F-Labeled Probe for PET Imaging of Oxidative Stress in Chemotherapy-Induced Cardiotoxicity” (Molecular Pharmaceutics, 2021).
# Experiments:
# [1] = PET/CT imaging of healthy mice; assay type: in vivo, C57BL/6 mice; conditions: iv
# Protocol: C57BL/6 mice (male, 25 ± 2 g, n = 3) were placed on the PET scanner bed and injected with ^18F-FPBT (1.7 ± 0.4 MBq) through the tail vein at the start time of PET acquisition. A dynamic PET scan was performed for 60 min, followed by a CT scan and ex vivo biodistribution. The PET data was reconstructed into 5 frames of 60 s, 3 frames of 300 s, and 4 frames of 600 s. Regions of interest (ROIs) were drawn and quantified using VivoQuant software (v3.0, inviCRO, LLC, Boston, USA). Organ uptake was calculated as standard uptake values (SUV), and data are reported as mean ± SD.
# [2] = Serum stability at 37 °C by radio-HPLC; assay type: in vitro ADME, rat; conditions: rat serum, ice-cold acetonitrile precipitation
# Protocol: ^18F-FPBT (∼3.0 MBq) in 5% ethanol in PBS (200 μL) containing sodium ascorbate (0.01 mg/mL) was incubated with rat serum (200 μL) at 37 °C for 1 min or 1 h. Subsequently, plasma proteins were precipitated from the supernatant with ice-cold acetonitrile (1.5 mL), and samples were centrifuged (3 min, 13 000 rpm). The residual activity in the pellet was <3%. The supernatant (∼2.0 MBq, 1.0 mL) was analyzed by radio-HPLC. HPLC method: ZORBAX column (300SB-C18, semipreparative 9.4 mm × 250 mm, 5 μm) using acetonitrile and water as the mobile phase, at a flow rate of 3.0 mL/min. The following gradient was used: from 50% to 90% acetonitrile in 15 min; kept at 90% acetonitrile for 10 min; from 90 to 50% acetonitrile in 5 min.
# ^18F-FBPT-Ox (2–4 MBq, 50 μL in 10% EtOH/PBS) was added to serum (500 μL) and incubated at 37 °C for 5, 15, and 30 min, respectively. Plasma proteins were precipitated with a 5-sulfosalicylic acid water solution (10% w/v, 1 mL) and centrifuged (3 min, 13 000 rpm). The supernatant was removed and diluted with 500 μL of DI H2O and analyzed via radio-HPLC. A control experiment was performed where ^18F-FBPT-Ox (2 MBq, 50 μL in 10% EtOH/PBS) was added to 500 μL of PBS, incubated at 37 °C for 30 min. A 5-sulfosalicylic acid water solution (10% w/v, 1 mL) was added, thoroughly mixed, then diluted with 500 μL of DI H2O, and analyzed via radio-HPLC. […]
# [3] = Reactivity of 18F-FPBT to reactive oxygen species: hydrogen peroxide; conditions: 100 μM, 5 min
# Protocol: (§1) ^18F-FPBT (0.5–2.0 MBq) was reacted with potassium superoxide (source of superoxide, 1 mg), hydrogen peroxide (100 μM), Fenton-reaction-generated hydroxyl radicals (100 μM), iron(II) sulfate heptahydrate (100 μM), tert-butyl hydroperoxide (100 μM), tert-butoxy radical (100 μM), and 3-morpholinosydnomine (source of peroxynitrite (100 μM)) for 5 min or diethylamine NONOate (source of nitric oxide, 100 μM) for 30 min at room temperature, after which it was subjected to radio-HPLC analysis and % oxidation was calculated.
# [4] = Reactivity of 18F-FPBT to reactive oxygen species: peroxynitrite; conditions: 3-morpholinosydnomine 100 μM, 5 min
# Protocol: as §1
# [5] = Reactivity of 18F-FPBT to reactive oxygen species: superoxide; conditions: potassium superoxide, 5 min, ascorbate 1 mg/mL, n = 3
# Protocol: as §1
# [6] = Ex vivo biodistribution in doxorubicin-treated and control rats after PET; design: species or system Wistar rats; conditions: for Ex vivo biodistribution, Blood / Ex vivo biodistribution, Bone / Ex vivo biodistribution, Heart / Ex vivo biodistribution, Kidney / Ex vivo biodistribution, Large Intestine / Ex vivo biodistribution, Liver / Ex vivo biodistribution, Lung / Ex vivo biodistribution, Muscle / Ex vivo biodistribution, Small Intestine / Ex vivo biodistribution, Spleen / Ex vivo biodistribution, Urine: 40 min post-injection
# Protocol: Male Wistar rats (280–300 g) were used in all experiments. Subcutaneous 7 day osmotic pumps (Alzet), containing either doxorubicin (Cambridge Bioscience, 30 mg/kg cumulative dose) or vehicle (sterile 0.9% NaCl), were inserted into rats under 2% isoflurane in 100% oxygen.
# Wistar rats that had received either doxorubicin treatment (male, 267 ± 19 g, n = 6) or saline (male, 303 ± 9 g, n = 4) via osmotic pumps for 7 days were injected with ^18F-FPBT (2.6 ± 1.5 MBq) via the tail vein on the PET/CT scanner bed. The time of injection coincided with the beginning of PET acquisition in order to obtain dynamic tracer uptake information. PET scans with the chest area in the field of vision were acquired for 30 min, followed by a CT scan, after which the animals were sacrificed and organs harvested, weighed, and gamma-counted as for the biodistribution protocol. The hearts were frozen in liquid nitrogen for gamma counting and oxidative stress biomarker assays. The PET data was reconstructed into three frames: 0–3 min, 3–10 min, and 10–30 min. For the time–activity curve, the PET data was reconstructed into 1 min per frame in the first 5 min and then 5 min per frame between 5 and 30 min. Using VivoQuant software (v3.0, inviCRO, LLC, Boston, USA), regions of interest (ROIs) were drawn in the left ventricle and blood inside the myocardium. Radioactivity uptake in the heart was calculated as a standard uptake value ratio (SUVR) between left ventricle and blood. Data are reported as mean ± SD. Statistical analysis was performed using one-way ANOVA with Tukey’s multiple comparisons test.
smiles,measurement,setting,value
"[18F]CCCN1c2ccccc2SC1c1ccccc1 (stereo not drawn) [^18F-FPBT, 3-(3-[^18F]Fluoropropyl)-2-phenyl-2,3-dihydrobenzo[d]thiazole]","Background retention in heart, lungs, spleen and brain",[1],low nonspecific background retention
same,Time to excretion by renal and hepatobiliary routes,[1],less than 1 h
same,Blood clearance,[1]; dynamic PET 60 min,fast blood clearance
same,Residual activity in the pellet after protein precipitation,[2],< 3%
same,Reactivity to hydrogen peroxide,[3],some reactivity
same,Reactivity to peroxynitrite,[4],some reactivity
same,% oxidation by superoxide in the presence of ascorbate,[5],31 ± 5%
same,"Post-mortem heart uptake in doxorubicin-treated animals, in words",[6]; 30 min post IV injection,did not show an increased uptake
same,"Ex vivo biodistribution, Blood","[6]; Doxorubicin group, n = 6",0.08 ± 0.06 % ID/g
same,"Ex vivo biodistribution, Bone","[6]; Doxorubicin group, n = 6",0.30 ±0.13 % ID/g
same,"Ex vivo biodistribution, Heart","[6]; Doxorubicin group, n = 6",0.43 ± 0.08 % ID/g
same,"Ex vivo biodistribution, Kidney","[6]; Doxorubicin group, n = 6",0.41 ± 0.14 % ID/g
same,"Ex vivo biodistribution, Large Intestine","[6]; Doxorubicin group, n = 6",1.42 ±2.07 % ID/g
same,"Ex vivo biodistribution, Liver","[6]; Doxorubicin group, n = 6",0.73 ± 0.24 % ID/g
same,"Ex vivo biodistribution, Lung","[6]; Doxorubicin group, n = 6",0.31 ± 0.12 % ID/g
same,"Ex vivo biodistribution, Muscle","[6]; Doxorubicin group, n = 6",0.10 ± 0.04 % ID/g
same,"Ex vivo biodistribution, Small Intestine","[6]; Doxorubicin group, n = 6",2.23 ± 1.43 % ID/g
same,"Ex vivo biodistribution, Spleen","[6]; Doxorubicin group, n = 6",0.15 ± 0.07 % ID/g
same,"Ex vivo biodistribution, Urine","[6]; Doxorubicin group, n = 6",12.5 ± 5.33 % ID/g
same,"Ex vivo biodistribution, Blood","[6]; Saline group, n = 4",0.07 ± 0.02 % ID/g
same,"Ex vivo biodistribution, Bone","[6]; Saline group, n = 4",0.25 ± 0.22 % ID/g
same,"Ex vivo biodistribution, Heart","[6]; Saline group, n = 4",0.42 ± 0.17 % ID/g
same,"Ex vivo biodistribution, Kidney","[6]; Saline group, n = 4",0.42 ± 0.19 % ID/g
same,"Ex vivo biodistribution, Large Intestine","[6]; Saline group, n = 4",0.38 ± 0.20 % ID/g
same,"Ex vivo biodistribution, Liver","[6]; Saline group, n = 4",0.65 ± 0.13 % ID/g
same,"Ex vivo biodistribution, Lung","[6]; Saline group, n = 4",0.29 ± 0.05 % ID/g
same,"Ex vivo biodistribution, Muscle","[6]; Saline group, n = 4",0.08 ± 0.02 % ID/g
same,"Ex vivo biodistribution, Small Intestine","[6]; Saline group, n = 4",3.33 ± 3.38 % ID/g
same,"Ex vivo biodistribution, Spleen","[6]; Saline group, n = 4",0.11 ± 0.02 % ID/g
same,"Ex vivo biodistribution, Urine","[6]; Saline group, n = 4",5.25 ± 3.05 % ID/g
